The values that follow come from patent US12378279B2, “Nicotinamide riboside hydrogen malate crystal, and its preparation method and application” (priority 2024, dated 2025).

Data set [1] is described as follows: Stability comparison: HPLC purity of samples in covered, sealed glass dishes in a constant-temperature-humidity chamber. The settings on record: 25° C., relative humidity 40%; for Decomposition rate over 6 days: (initial sample purity−sample purity)/initial sample purity×100%; for Purity: sealed glass dish. As for the experimental part:
The nicotinamide riboside hydrogen malate crystal obtained herein and the commercially-available nicotinamide riboside hydrogen malate crystal samples (A and B) were each divided into seven portions and separately placed into seven glass sample dishes, with 1 g of sample in each dish. The dishes were covered and sealed. All the samples were stored in a constant-temperature-humidity chamber at 25° C. and a relative humidity of 40%. The purity of the samples was tested daily. The decomposition rate was calculated using the following formula: decomposition rate=(initial sample purity−sample purity)/initial sample purity×100%.
Product purity analysis was performed through the following steps. One packet of the sample was dissolved in a 5 mL or 10 mL volumetric flask to prepare a 5 mL or 10 mL sample solution. Then, the purity of the sample was determined using high performance liquid chromatography (HPLC).
The high performance liquid chromatography (HPLC) method parameters were as follows: isocratic elution with 5% water (0.1% formic acid) and 95% methanol (0.1% formic acid) as the mobile phase, a wavelength of 254 nm, a temperature of 23.0° C. with 54% relative humidity, samples dissolved in methanol, an ODS-2 column (4.6×250 mm, […]) with pressure maintained at 12-13 MPa, a flow rate of 1.0 mL/min, an injection volume of […] and a run time greater than or equal to 15 min.

For data set [2] the following is noted: at 112-200° C., heating rate 10° C./min, nitrogen. As for the experimental part: Thermogravimetric analysis (TGA) was performed using a TGA55 instrument from TA Instruments, USA, with a temperature range of 14.8-300° C., a heating rate of 10° C./min and a nitrogen flow rate of 40 mL/min.
A short description of data set [3]: Color change and hygroscopicity of products exposed to air (Karl Fischer moisture). Type of data set: physicochemical. The settings on record: RH 40%. As for the experimental part:
The nicotinamide riboside hydrogen malate crystal products obtained from the above Examples and Comparative Examples were respectively exposed to air (air humidity and temperature were controlled). […] Moisture (Karl Fischer) determination method was performed using an MC-2000 automatic micro-moisture analyzer from Mince Instruments (Xiamen) Co., Ltd., and a karl fischer reagent from Nanjing Chemical Reagent Co., Ltd.

Data set [4] in a line: Stability comparison: HPLC purity of samples sealed in polyethylene bags in a constant-temperature-humidity chamber. Type of data set: physicochemical. As to conditions: 25° C., RH 40%, sealed PE bag; for Decomposition rate on day 6: (initial sample purity−sample purity)/initial sample purity×100%. As for the experimental part:
The nicotinamide riboside hydrogen malate crystal obtained from the above Examples and Comparative Examples products was sealed in polyethylene (PE) bags, with 1 gram per bag. […] Samples were tested at regular intervals. Sample solution was prepared through the following steps. […] Then, the sample solution was filtered through a membrane, and the sample purity was determined using high performance liquid chromatography (HPLC).

Regarding `NC(=O)c1ccc[n+]([C@@H]2O[C@H](CO)[C@@H](O)[C@H]2O)c1.O=C(O)CC(O)C(=O)[O-]` [Commercially-available product A, nicotinamide riboside hydrogen malate], the “Decomposition rate over 6 days” value in data set [1] turned out to be 8.37%. Besides, the Purity in data set [1] (day 0) worked out at 99.900%; in data set [1] (day 1), 98.355%; in data set [1] (day 2) it was 96.843%; in data set [1] (day 3), 95.752%; in data set [1] (day 4), 94.185%; in data set [1] (day 5), 93.250%. The same compound had a Purity in data set [1] (day 6) of 91.538%.
With `NC(=O)c1ccc[n+]([C@@H]2O[C@H](CO)[C@@H](O)[C@H]2O)c1.O=C(O)CC(O)C(=O)[O-]` [Commercially-available product B, nicotinamide riboside hydrogen malate], in data set [1], the “Decomposition rate over 6 days” value is on record as 4.77%. The Purity in data set [1] (day 0) stood at 99.750%; in data set [1] (day 1) it was 98.843%; in data set [1] (day 2), 98.310%; in data set [1] (day 3), 97.982%; in data set [1] (day 4), 96.530%; in data set [1] (day 5) it was 95.020%. The compound also yielded a Purity in data set [1] (day 6) of 94.989%.
On to `NC(=O)c1ccc[n+]([C@@H]2O[C@H](CO)[C@@H](O)[C@H]2O)c1.O=C(O)CC(O)C(=O)[O-]` [Example 1, nicotinamide riboside hydrogen malate], for which, in data set [1] (6 days), the “Stability compared to the commercially-available products” value was “better stability”. The “Decomposition rate over 6 days” value in data set [1] (listed as Product of Example 1) worked out at 0.759%. Further, the Purity in data set [1] (day 0, listed as Product of Example 1) was 99.576%; in data set [1] (day 1, listed as Product of Example 1), 99.553%; in data set [1] (day 2, listed as Product of Example 1), 99.494%; in data set [1] (day 3, listed as Product of Example 1), 99.510%; in data set [1] (day 4, listed as Product of Example 1) it was 99.518%; in data set [1] (day 5, listed as Product of Example 1) it was 99.499%. For the same compound, the Purity in data set [1] (day 6, listed as Product of Example 1) was determined as 98.820%. Also, the “Weight loss (TGA)” value in data set [2] is reported as 1-33%. For the same compound, the Product moisture in data set [3] (Day 0, 25° C., listed as EXAMPLE 1) is reported as 0.30%; in data set [3] (Day 6, 25° C., listed as EXAMPLE 1), 2%. Besides, the “Purity on day 6” value in data set [4] (listed as EXAMPLE 1) stood at 99.65%. The compound further had an Initial purity in data set [4] (listed as EXAMPLE 1) of 99.67%. Further, the “Decomposition rate on day 6” value in data set [4] (listed as EXAMPLE 1) worked out at 0.72%.
Regarding `NC(=O)c1ccc[n+]([C@@H]2O[C@H](CO)[C@@H](O)[C@H]2O)c1.O=C(O)CC(O)C(=O)[O-]` [Example 2, nicotinamide riboside hydrogen malate], in data set [3] (Day 0, 25° C., listed as EXAMPLE 2), the Product moisture amounted to 0.28%. In data set [3] (Day 6, 25° C., listed as EXAMPLE 2), this compound returned a Product moisture of 3.1%. In data set [4] (listed as EXAMPLE 2), the “Purity on day 6” value is recorded as 98.97%, the Initial purity was 99.72% and the “Decomposition rate on day 6” value came to 0.75%.
Turning to `NC(=O)c1ccc[n+]([C@@H]2O[C@H](CO)[C@@H](O)[C@H]2O)c1.O=C(O)CC(O)C(=O)[O-]` [Example 3, nicotinamide riboside hydrogen malate], the Product appearance result is “White” in data set [3] (Day 0, 25° C.) and “White” in data set [3] (Day 6, 25° C.). Moreover, the Product moisture in data set [3] (Day 0, 25° C., listed as EXAMPLE 3) is reported as 0.30%; in data set [3] (Day 6, 25° C., listed as EXAMPLE 3), 2.4%. In data set [4] (listed as EXAMPLE 3), the “Purity on day 6” value was 98.95%. This compound also came in with an Initial purity in data set [4] (listed as EXAMPLE 3) of 99.69%. The “Decomposition rate on day 6” value in data set [4] (listed as EXAMPLE 3) stood at 0.74%.
Turning to `NC(=O)c1ccc[n+]([C@@H]2O[C@H](CO)[C@@H](O)[C@H]2O)c1.O=C(O)CC(O)C(=O)[O-]` [Example 4, nicotinamide riboside hydrogen malate], the Product moisture in data set [3] (Day 0, 25° C., listed as EXAMPLE 4) came to 0.22%. Further, in data set [3] (Day 6, 25° C., listed as EXAMPLE 4), the Product moisture stood at 1.8%. Besides, in data set [4] (listed as EXAMPLE 4), the “Purity on day 6” value is 98.79%, the Initial purity is 99.51% and the “Decomposition rate on day 6” value came out at 0.72%.
In data set [3] (Day 0, 25° C., listed as EXAMPLE 5), `NC(=O)c1ccc[n+]([C@@H]2O[C@H](CO)[C@@H](O)[C@H]2O)c1.O=C(O)CC(O)C(=O)[O-]` [Example 5, nicotinamide riboside hydrogen malate] showed a Product moisture of 0.31%. In data set [3] (Day 6, 25° C., listed as EXAMPLE 5), this compound gave a Product moisture of 2.9%. In addition, in data set [4] (listed as EXAMPLE 5), the “Purity on day 6” value is 99.15%, the Initial purity came to 99.78% and the “Decomposition rate on day 6” value stood at 0.63%.
The compound `NC(=O)c1ccc[n+]([C@@H]2O[C@H](CO)[C@@H](O)[C@H]2O)c1.O=C(O)CC(O)C(=O)[O-]` [Example 6, nicotinamide riboside hydrogen malate] yielded a Product moisture in data set [3] (Day 0, 25° C., listed as EXAMPLE 6) of 0.29%. In data set [3] (Day 6, 25° C., listed as EXAMPLE 6), this compound displayed a Product moisture of 3.2%. Besides, in data set [4] (listed as EXAMPLE 6), the “Purity on day 6” value is reported as 99.11%, the Initial purity worked out at 99.81% and the “Decomposition rate on day 6” value is on record as 0.70%.
